From paper PMC7808659, “Lotus japonicus karrikin receptors display divergent ligand-binding specificities and organ-dependent redundancy” (PLoS Genetics, 2020)

Columns and labels:
LjKAI2b [1] = target: LjKAI2b (Lotus japonicus, UniProt I3S3D1, W158F); experiment: differential scanning fluorimetry; intrinsic tryptophan fluorescence; assay type: binding; details: SYPRO Tangerine; response like wild-type LjKAI2a
LjKAI2b [2] = target: LjKAI2b (Lotus japonicus, UniProt I3S3D1, W158F/M161L/L191S); experiment: as above; assay type: binding; details: SYPRO Tangerine; shift from 25 uM
Chain of LjKAI2b (Lotus japonicus, UniProt I3S3D1, W158F/M161L/L191S) (I3S3D1 entry or part of it W158F/M161L/L191S): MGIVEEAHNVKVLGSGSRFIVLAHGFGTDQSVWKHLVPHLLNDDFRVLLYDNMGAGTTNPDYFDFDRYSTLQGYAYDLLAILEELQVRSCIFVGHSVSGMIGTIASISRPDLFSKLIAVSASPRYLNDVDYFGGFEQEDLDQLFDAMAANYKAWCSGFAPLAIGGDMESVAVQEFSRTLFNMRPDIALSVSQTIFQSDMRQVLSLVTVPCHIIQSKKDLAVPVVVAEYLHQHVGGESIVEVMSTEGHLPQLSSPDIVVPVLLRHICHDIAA
Description: differential scanning fluorimetry; intrinsic tryptophan fluorescence on LjKAI2b | LjKAI2b^[…],[…],F158 gained a strong response to GR24^ent-5DS

Chain of LjKAI2b (Lotus japonicus, UniProt I3S3D1, W158F) (I3S3D1 entry or part of it W158F): as the sequence (I3S3D1 entry or part of it W158F/M161L/L191S) above, with L161M, S191L counted along it

CC1=C[C@@H](O/C=C2/C(=O)O[C@H]3c4ccccc4C[C@@H]23)OC1=O (racemic) [GR24^ent-5DS]
differential scanning fluorimetry; intrinsic tryptophan fluorescence (LjKAI2b [1]): LjKAI2b^F158 recapitulated the response of LjKAI2a to GR24^ent-5DS | differential scanning fluorimetry; intrinsic tryptophan fluorescence (LjKAI2b [2]): LjKAI2b^L161,S191,F158 gained a strong response to GR24^ent-5DS
